# Target: mKv1.3 (Mus musculus, UniProt P16390)
# Assay: cell-based
# Sequence of mKv1.3 (P16390 whole entry): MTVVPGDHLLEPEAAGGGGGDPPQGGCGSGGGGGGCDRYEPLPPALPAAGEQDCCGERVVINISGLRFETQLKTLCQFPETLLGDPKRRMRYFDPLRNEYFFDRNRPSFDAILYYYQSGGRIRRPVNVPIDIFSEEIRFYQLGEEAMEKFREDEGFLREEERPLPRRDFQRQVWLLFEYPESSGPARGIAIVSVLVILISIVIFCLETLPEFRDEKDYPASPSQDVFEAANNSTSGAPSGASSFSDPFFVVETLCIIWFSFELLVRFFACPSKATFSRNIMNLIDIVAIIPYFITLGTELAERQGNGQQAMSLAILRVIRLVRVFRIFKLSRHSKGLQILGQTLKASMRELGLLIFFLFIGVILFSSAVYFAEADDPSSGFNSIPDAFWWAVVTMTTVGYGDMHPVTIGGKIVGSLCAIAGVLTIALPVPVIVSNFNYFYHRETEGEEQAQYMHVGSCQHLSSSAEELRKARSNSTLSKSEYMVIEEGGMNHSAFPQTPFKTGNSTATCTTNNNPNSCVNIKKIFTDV
compound,measurement,value
CC[C@H](C)[C@@H]1NC(=O)[C@@H](NC(=O)[C@H](CO)NC(=O)[C@@H](N)CCCNC(=N)N)CSSC[C@@H](C(=O)O)NC(=O)[C@H]([C@@H](C)O)NC(=O)CNC(=O)[C@@H]2CSSC[C@@H]3NC(=O)[C@H](CCC(N)=O)NC(=O)[C@H](Cc4ccccc4)NC(=O)[C@H](C)NC(=O)[C@H]([C@@H](C)O)NC(=O)[C@H](CSSC[C@H](NC(=O)[C@H](Cc4ccccc4)NC(=O)[C@H](CO)NC(=O)[C@H](CC(C)C)NC(=O)[C@H](CCCNC(=N)N)NC(=O)[C@H](Cc4ccc(O)cc4)NC(=O)[C@H](CCCCN)NC(=O)[C@H](CCSC)NC(=O)[C@H](CO)NC(=O)[C@H](Cc4cnc[nH]4)NC(=O)[C@H](CCCCN)NC3=O)C(=O)N[C@@H](CCCNC(=N)N)C(=O)N[C@@H](CCCCN)C(=O)N[C@@H]([C@@H](C)O)C(=O)N2)NC(=O)[C@H](CCCNC(=N)N)NC(=O)[C@H](CO)NC(=O)[C@H](CCCCN)NC(=O)[C@@H]2CCCN2C(=O)[C@H]([C@@H](C)CC)NC(=O)[C@H]([C@@H](C)O)NC(=O)[C@H](CC(=O)O)NC1=O [ShK],IC50,9.3 ± 2 pM

# — paper PMC3820677 (PLoS ONE, 2013)
